Data set [1] addresses T1, R77L mouse tyrosinase (Mus musculus, UniProt P11344, R77L).
T1 construct: expressed in transfected cells; host or cells: CHO cells, pcDNA3.1
T1 sequence (P11344 19-533 R77L): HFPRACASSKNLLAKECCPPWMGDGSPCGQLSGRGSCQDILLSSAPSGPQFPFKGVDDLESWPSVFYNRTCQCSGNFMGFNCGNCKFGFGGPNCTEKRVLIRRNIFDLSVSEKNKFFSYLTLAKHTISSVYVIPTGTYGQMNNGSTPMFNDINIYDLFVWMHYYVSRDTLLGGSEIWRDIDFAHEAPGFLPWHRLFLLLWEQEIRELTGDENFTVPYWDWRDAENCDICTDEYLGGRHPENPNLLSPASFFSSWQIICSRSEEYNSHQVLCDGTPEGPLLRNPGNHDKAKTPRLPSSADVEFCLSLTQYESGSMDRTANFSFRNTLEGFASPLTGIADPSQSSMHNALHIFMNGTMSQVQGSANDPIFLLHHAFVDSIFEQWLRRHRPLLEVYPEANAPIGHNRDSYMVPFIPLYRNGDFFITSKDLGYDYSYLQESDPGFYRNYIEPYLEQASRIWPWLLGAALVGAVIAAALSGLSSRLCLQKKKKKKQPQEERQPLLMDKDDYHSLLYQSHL
Description: Tyrosinase protein stability in CHO cells with cycloheximide, R77L. The format is cell-based. Particulars: 1 mM tyrosine. The procedure: In Vitro Expression and Enzyme Activity. The expression construct of mouse Tyr was a kind gift of Dr. C. Olivares from the School of Medicine of the University of Murcia (Spain). This construct was prepared in the pcDNA3.1 expression vector (Invitrogen, Carlsbad, Calif.) using EcoRI/XbaI restriction sites and based on the mouse Tyr clone obtained as described previously in C. Olivares, et al., Biochem. J., 354:131 (2001). Constructs of tyrosinase gene mutant variants, with changes corresponding to missense mutations R77L and H420R in the mouse tyrosinase protein sequence, were created using standard methodologies (Mutagenex Inc., Piscataway, N.J.). […]
Chinese hamster ovary cells (CHO) (generous gift from Dr. J. T. Wroblewski from the Pharmacology Department, Georgetown University Medical Center, Washington D.C.) were grown at a temperature of about 37° C. in DMEM media, in the presence of 10% fetal bovine serum, 1% penicillin and 4.5 g […] per 0.5 liter of media. […] The total protein content in protein lysates was determined spectrophotometrically as a 280/260 ratio. Protein expression was analyzed by Western blotting, and GAPDH was used as an internal loading control. For the analysis, Western blots were scanned, intensities of protein bands were determined, and ratios of band intensities for the wild type or mutant variants, to that of GAPDH were calculated. […]

Data set [2] deals with melanocytes from an OCA-1A patient. Description: Human melanocyte melanin assay, OCA-1A patient. It is filed as cell-based. Particulars: presence or absence of 1 mM tyrosine. The protocol:
Human melanocyte culture and melanin assay. Human melanocytes were established from skin punch biopsies. Skin specimens were washed with PBS then treated with 0.25% trypsin-EDTA (Gibco 25200) for about 2 hours followed by vigorous vortexing to separate the epidermis. The epidermis was sectioned and attached to scored patches on the bottom of a 6-well polystyrene culture dish before being covered with melanocyte media. About 1000 ml of melanocyte media was made from 950 ml Ham's F10 (Gibco 1550), 25 ml FBS, 5 ug bFGF (Sigma F0291), 10 μg endothelin (Sigma, E7764, Sigma Chemicals, St. Louis, Mo.), 7.5 mg IBMX (Sigma 17018), 30 μg cholera toxin (Sigma C8052), 3.3 μg TPA (Sigma P8139), 10 ml PenStrepGlutamine, 1 ml fungizone and the media was 0.22 μm filtered.
Melanocytes were plated on 6 well dishes and grown to confluency. Melanin assays were run in triplicate by supplementing three wells per plate with 1 mM tyrosine (Sigma T8566), using the remaining 3 wells as untreated controls. Treatment time was approximately one week. […] The OD475 was measured and converted to melanin content via a standard curve using synthetic melanin (Sigma M0418). The data were normalized to protein content, determined using a bicinchoninic (BCA) assay kit (BioRad, Inc., Hercules, Calif.). Differences between treated and untreated measurements were analyzed with a two-tailed unpaired t-test. […]

For data set [3] the following is noted: affected individuals, oral dosing; cited from earlier work.

Structures are written as SMILES.

`N[C@@H](Cc1ccc(O)cc1)C(=O)O` [tyrosine]: in data set [1], the “Stabilization of R77L mutant tyrosinase protein relative to GAPDH” value is given as “not statistically significant”. Also, in data set [2], the Pigment production result is given as “did not produce detectable pigment”.

For `O=C1CCCC(=O)C1C(=O)c1ccc(C(F)(F)F)cc1[N+](=O)[O-]` [NTBC, 2-(-2-nitro-4 trifluoromethylbenzoyl)-1,3 cyclohexanedione], the Half-life in data set [3] was 50 to 60 h.

Source of the values: patent US9364448B2, “Nitisinone for treatment of oculocutaneous/ocular albinism and for increasing pigmentation” (The United States of America, as represented by the …, priority 2010, dated 2016).
